Experiments:
Type in all cases: functional
[1] = test system: Artemia salina; assay: Compound was tested for the antiparasitic activity by using Artemia salina (brine shrimp) immobilization assay
[2] = test system: Haemonchus contortus; assay: Compound was tested for the anthelmintic efficacy by using Haemonchus contortus larval assay
[3] = species on record: Mus musculus; assay: Compound was tested for the anticonvulsant activity in pentamethylenetetrazole mouse epilepsy model
[4] = species on record: Mus musculus; assay: Compound was tested for the sedative effect by using mouse rotarod test; conditions: for minimal effective dose: read-out: MED

Compound	IC100 [1]	IC100 [2]	ED50 [3]	minimal effective dose [4]	IC100 [3]	MED [4]
CCC(C)[C@H]1O[C@]2(C=C[C@@H]1C)C[C@@H]1C[C@@H](C/C=C(\C)[C@@H](O[C@H]3C[C@H](OC)[C@@H](O[C@H]4C[C@H](OC)C(F)(F)[C@H](C)O4)[C@H](C)O3)[C@@H](C)/C=C/C=C3\CO[C@@H]4[C@H](O)C(C)=C[C@@H](C(=O)O1)[C@]34O)O2 (stereo partly drawn)	5200 ng/mL	10 ng/mL				
CCC(C)[C@H]1O[C@]2(C=C[C@@H]1C)C[C@@H]1C[C@@H](C/C=C(\C)C(F)(F)[C@@H](C)/C=C/C=C3\CO[C@@H]4[C@H](O)C(C)=C[C@@H](C(=O)O1)[C@]34O)O2 (stereo partly drawn)	325 ng/mL	10 ng/mL				
CCC(C)[C@H]1O[C@@]2(C[C@@H]3C[C@@H](C/C=C(\C)[C@@H](O[C@H]4C[C@H](OC)[C@@H](O[C@H]5C[C@H](OC)[C@@H](O)[C@H](C)O5)[C@H](C)O4)[C@@H](C)/C=C/C=C4\CO[C@@H]5[C@H](O)C(C)=C[C@@H](C(=O)O3)[C@]45O)O2)CC(F)(F)[C@@H]1C (stereo partly drawn)	13009 ng/mL	10 ng/mL	9 mg/kg	> 40 mg/kg		
CCC(C)[C@H]1O[C@]2(C=C[C@@H]1C)C[C@@H]1C[C@@H](C/C=C(\C)[C@@H](O[C@H]3C[C@H](OC)[C@@H](O[C@H]4C[C@H](OC)[C@H](O)[C@H](C)O4)[C@H](C)O3)[C@@H](C)/C=C/C=C3\CO[C@@H]4[C@H](O)C(C)=C[C@@H](C(=O)O1)[C@]34O)O2 (stereo partly drawn)	430 ng/mL				28.2 ng/mL	
IVERMECTIN	430 ng/mL	10 ng/mL	28.2 mg/kg			> 300 mg/kg
CCC(C)[C@H]1O[C@]2(C=C[C@@H]1C)C[C@@H]1C[C@@H](C/C=C(\C)[C@@H](O[C@H]3C[C@H](OC)C(F)(F)[C@H](C)O3)[C@@H](C)/C=C/C=C3\CO[C@@H]4[C@H](O)C(C)=C[C@@H](C(=O)O1)[C@]34O)O2 (stereo partly drawn)		10 ng/mL				
CN1C(=O)CN=C(c2ccccc2)c2cc(Cl)ccc21 [DIAZEPAM]			0.26 mg/kg	3 mg/kg		
CCC(C)[C@H]1O[C@@]2(C[C@@H]3C[C@@H](C/C=C(\C)[C@@H](O[C@H]4C[C@H](OC)[C@@H](O[C@H]5C[C@H](OC)[C@@H](O)[C@H](C)O5)[C@H](C)O4)[C@@H](C)/C=C/C=C4\CO[C@@H]5[C@H](OC)C(C)=C[C@@H](C(=O)O3)[C@]45O)O2)CC(F)(F)[C@@H]1C (stereo partly drawn)		10 ng/mL				

From ChEMBL document CHEMBL1130722, “Synthesis of gem-difluoro-avermectin derivatives: potent anthelmintic and anticonvulsant agents” (1998)
